Reference: patent publication US10487219B2, “Method and compositions for cleaning cooking range exhaust systems” (NOVAPHARM RESEARCH (AUSTRALIA) PTY LTD, priority 2015, dated 2019)

Assay: Biocide migration test: biocide in strippable PV Acetate emulsion coating, film coated with cooking oil for 24 hrs, oil tested for presence of biocide
Format: physicochemical
Conditions: dry film in situ, oily deposits
Description: Initially biocides were selected for trial on the basis that they would be innocuous in a food preparation area. Many of those initially tested are food grade or similar low toxicity biocides. Biocides were tested by incorporating the biocide in the strippable PV Acetate emulsion coating formulation, coating a film of the coating with cooking oil and leaving it in place for 24 hrs and then testing the oil for presence of Biocide. The leaching of the biocide into the oil is considered a proxy for the ability of the film to prevent microbial degradation of the oily material coated thereon.

SMILES	Suitability as oil soluble biocide leaching from the dry film into oils deposited on the film
CCCCOC(=O)c1ccc(O)cc1 [butyl parabens, Butyl Parabens]	satisfactory
OCCOc1ccccc1 [phenoxyethanol, Phenoxyethanol]	ineffective

Same assay, conditions: strippable PV Acetate emulsion coating film coated with cooking oil, 24 hrs, oil tested for presence of biocide

SMILES	Leaching (migration) of the biocide from the coating into the oil
CCCCOC(=O)c1ccccc1 [butyl benzoate]	passed the above test
CCOC(=O)c1ccccc1 [ethylbenzoate]	passed the above test
COC(=O)c1ccccc1 [methyl benzoate]	passed the above test
CCCOC(=O)c1ccccc1 [propyl benzoate]	passed the above test
